Tests used:
SOD1^G37R mice [1] = assay: Motor neuron counts in lumbar spinal cord sections (ChAT/NeuN); format: in vivo, mouse; conditions: P520, treatment from disease onset, p<0.0001
Text: We prepared lumbar spinal cords sections as previously described[6] and labeled MNs with the cholinergic neuronal marker ChAT and the general neuronal nuclei marker NeuN to identify α-MNs. Neurons positive for both markers located in the ventral horn were counted as α-MNs.
Motor neuron counts: Mouse were perfused transcardially and lumbar spinal cord were subsequently dissected, cryoprotected in a 30% sucrose solution and frozen using dry ice. Floating lumbar spinal cord cryosections were processed as previously described. Spinal cords cryosections were double stained against Choline Acetyl-Transferase (ChAT: 1:100; Goat; Millipore, Canada; AB144P) and the neuronal marker Neuronal Nuclei (NeuN; 1:300; Mouse IgG1; Millipore; MAB377). ChAT and NeuN positive cells were identified as α-MNs[4]. A minimin of twenty lumbar spinal cord sections per animal were analysed and double-positive cells from each ventral horns were quantified.

SOD1^G37R mice [2] = assay: Survival cohort; conditions: continuous treatment from disease onset (P450) until end stage; N=10
SOD1^G37R mice [3] = assay: Rotarod acceleration protocol; format: in vivo, mouse
Experimental: Third, the motor performance, balance and coordination, were measured using a standard acceleration protocol on the Rotarod (FIG. 8A), which is known to reveal ALS motor deficits as disease progresses.
Motor coordination, strength and balance were assessed using a rotarod (TSE Rotarod, TSE Systems Gmbh, Germany). Animals were placed onto a rotating wheel at a starting speed of 4 rpm, increasing to 40 rpm in 300 seconds. Mice had two attempts per session to remain on the rotarod during the acceleration protocol, and the longest latency to fall was counted.

SOD1^G37R mice [4] = assay: Grip strength; format: in vivo, mouse; conditions: from P490 until the end of the trial; treatment from disease onset; N=19
Text: Mice of the darifenacin and placebo groups began the trial with a similar grip strength force.
The pre-clinial trial design was made according to guidelines for preclinical animal research in ALS/MND [35]. Male mice from the SOD1^G37R background and their WT littermates were included in the preclinical study. Mice were randomly assigned to the experimental or the placebo group. Treatment, behavior monitoring, experiments and results analysis were done blindly. Standard ALS behavioral measurements were performed biweekly to measure disease progression in the various study groups. This includes rotarod test. grip strength measurements, weight measurements and tail suspension test to assess hindlimb extension reflex.

SOD1^G37R mice [5] = assay: EDL muscle weight; format: in vivo, mouse
SOD1^G37R mice [6] = assay: EDL muscle fatigue protocol and 30 min recovery; format: in vivo, mouse
Experimental: In addition to the force generated, a muscle is also characterised by its resistance to fatigue. For instance, fast-twitch muscles composed of a majority of fast fatigable motor units like the EDL, is their great fatigability. In ALS, alteration at the type of innervation (from fast to slow twitch) and in the properties of muscles themselves alter the fatigue properties, rendering them more resistant. […] We used a fatigue stimulation protocol, followed by a 30 min recovery period (FIG. 6A). […] However, we found no difference in the rate of fatigue of muscle contractions generated by motor nerve stimulation (FIG. 6C; Dari N=8, Placebo N=8; p>0.05, Repeated two-way ANOVA). […] There was no difference in the rate of recovery following the fatigue protocol between the darifenacin-treated mice and the placebo-treated ones (FIG. 6B-C; Dari N=8, Placebo N=8; p>0.05, Repeated two-way ANOVA).
Finally, we investigated the fatigue properties of the EDL muscle following darifenacin pre-onset treatment. As mentioned earlier, fast-twitch muscles like the EDL are very strong but are normally highly fatigable. However, in ALS, a gradual resistance to fatigue of fast-twitch muscles have been unraveled, following progression of disease pathogenesis. We used a fatigue stimulation protocol (180 trains at 120 Hz-300 ms), followed by a 30 min recovery period (see FIG. 6A) to investigate treatment impact on EDL fatigue properties. […] The strong resistance of the muscle to fatigue probably reflected the high rate of denervation of the EDL muscle at the symptomatic stage in both darifenacin-and placebo-treated mice.
Muscle fatigue: The fatigue protocol is illustrated in FIG. 6A. The fatigue protocol was adapted to each muscle owing to the differences in their intrinsic properties. For the EDL, fatigue was tested using a bout of 180 nerve stimulations for a duration of 300 ms, elicited at a frequency of 120 Hz. The rest period between each stimulation was 700 ms, for a total protocol duration of 3 min. Muscular stimulations were super-imposed to nerve stimulations every 10 stimulations (18 simultaneous nerve-muscle stimulations), to evaluate muscular reserve. The fatigue protocol for the SOL consisted of a bout of 300 nerve stimulations for 500 ms at 50 Hz, with a rest period of 600 ms between stimulations, for a total duration of 5 min 30. Muscular stimulations were super-imposed to nerve stimulations every 10 stimulations (30 simultaneous nerve-muscle stimulations).
Each fatigue protocol was followed by a 30 min recovery period during which muscular and neuromuscular contractile force were measured at the following latencies (after the end of the fatigue protocol): 5 s, 10 s, 15 s, 30 s, 45 sec, 1 min, 1.5 min, 2 min, 2.5 min, 5 min, 10 min, 20 min and 30 min.

[7] = pre-onset treatment P400 until P520

SMILES: NC(=O)C(c1ccccc1)(c1ccccc1)[C@@H]1CCN(CCc2ccc3c(c2)CCO3)C1 [darifenacin]
- α-MN count per ventral horn vs placebo (SOD1^G37R mice [1]): significantly higher
- median lifespan (SOD1^G37R mice [2]): 551 days
- Rotarod latency to fall vs placebo (SOD1^G37R mice [3]; at P520 and P525, treatment from disease onset, N=22): significantly higher score
- share of group still able to stand for several seconds on the rotating rod (SOD1^G37R mice [3]; late symptomatic stage, data not shown): more than half
- grip strength vs placebo (SOD1^G37R mice [4]): performed better
- EDL muscle weight (SOD1^G37R mice [5]; pre-onset treatment P400 until P520, N=4, n=7): 9.1 ± 0.55 mg
- EDL muscle weight (SOD1^G37R mice [5]; treatment from disease onset, N=8, n=16): 11.79 ± 0.34 mg
- rate of fatigue generated by muscle stimulation vs placebo (SOD1^G37R mice [6]; [7]): no difference
- rate of recovery following the fatigue protocol vs placebo (SOD1^G37R mice [6]; [7]): comparable
- rate of fatigue of contractions generated by motor nerve stimulation vs placebo (SOD1^G37R mice [6]; treatment from disease onset): no difference
- rate of recovery following the fatigue protocol vs placebo (SOD1^G37R mice [6]; treatment from disease onset): no difference
- EDL fatigue on direct muscle stimulation (SOD1^G37R mice [6]; treatment from disease onset, p<0.01 vs placebo): more typical for this type of fast twitch muscle

— US20240374563A1, “ANTICHOLINERGIC COMPOUNDS FOR USE IN TREATING NEUROMUSCULAR DISORDERS” (UNIVERSITY OF MONTRÉAL, priority 2022, published 2024)
